Values of other authors, collected in patent US20130052262A1, “DABIGATRAN ETEXILATE-CONTAINING ORAL PHARMACEUTICAL COMPOSITION” (priority 2010, published 2013).

Conditions: in the acidic environment

CCCCCCOC(=O)NC(=N)c1ccc(NCc2nc3cc(C(=O)N(CCC(=O)OCC)c4ccccn4)ccc3n2C)cc1 [dabigatran etexilate, 3-[(2-{[4-(hexyloxycarbonylamino-imino-methyl)-phenylamino]-methyl}-1-methyl-1H-benzimidazole-5-carbonyl)-pyridine-2-yl-amino]-propionic acid ethyl ester]
pH-dependent solubility: greatly increased
